From publication PMC7988117, “OMN6 a novel bioengineered peptide for the treatment of multidrug resistant Gram negative bacteria” (Scientific Reports, 2021)
Bridge positions count the residues as written; N and C are the ends. Peptide text beside a SMILES is read from it.

Assays:
[1] = molecular target: T1, Proteinase-K (Parengyodontium album, UniProt P06873); assay: Peptide stability to Proteinase-K (SDS-PAGE); type: in vitro ADME; settings: 10 µg peptide with 5 or 20 ng Proteinase-K (0.16 or 0.66 µg/mL), 2 h, 37 °C; 15% acrylamide SDS-PAGE, Coomassie stain
T1 construct: purchased Sigma-Aldrich
T1 sequence (P06873 106-384): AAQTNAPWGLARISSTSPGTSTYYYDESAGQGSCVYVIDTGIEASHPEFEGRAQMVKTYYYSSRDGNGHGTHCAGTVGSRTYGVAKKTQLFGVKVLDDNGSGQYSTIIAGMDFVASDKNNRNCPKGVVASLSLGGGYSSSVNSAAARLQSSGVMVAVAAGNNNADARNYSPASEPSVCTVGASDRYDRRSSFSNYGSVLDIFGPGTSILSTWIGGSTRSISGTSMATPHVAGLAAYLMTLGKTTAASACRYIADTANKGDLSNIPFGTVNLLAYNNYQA
Experimental: 10 µg of synthetic cecropin A (Genscript, Piscataway, NJ, USA), OMN6, or bovine serum albumin (BSA; Sigma-Aldrich, St. Louis, MO, USA) were incubated with 5 or 20 ng Proteinase-K (Sigma-Aldrich; final treatment concentration of 0.16 or 0.66 µg/mL respectively) for 2 h at 37 °C, and separated on a 15% acrylamide gel (Bio-Rad, Hercules, CA, USA) by SDS-PAGE. The gel was then stained with Coomassie dye and excess color was removed over-night.

[2] = system: E. coli GFPuv; type: cell-based, Escherichia coli
Experimental: E. coli GFPuv bacteria (contribution from Dr. Tsafi Danieli, head of the Protein Expression Facility at the Hebrew University of Jerusalem, Israel) were grown in LB broth (BD) and induced to express the Green Fluorescent Protein (GFP) in auto-induction medium, as previously described by F.W. Studier[31]. Briefly, bacteria were cultured for 3 h at 37 °C while shaking at 200 rpm, in induction medium ZYP-5052 containing 1% N-Z amine AS, 0.5% yeast extract, 50 mM Na2HPO4, 50 mM KH2HPO4, 25 mM (NH4)2SO4, 2 mM MgSO4, 0.5% glycerol, 0.05% glucose and 0.2% lactose. For the bacterium visualization experiment, 2 × 10^6 colony-forming units (CFU) were treated by 16 µg/mL OMN6 or Double-Distilled Water (DDW) for 60 min. Bacteria were monitored with a confocal microscope at a wavelength of 488 nm. Then, bacteria were seeded on LB agar (BD) plates, incubated at 37 °C for 24 h, and CFU were counted. For the supernatant visualization and quantification experiment, 10^5 CFU were co-incubated with 50 µM OMN6 or DDW for 30 min, and bacteria were collected and centrifuged at 5000 rpm for 10 min. Experiment tubes were visualized under UV light. Then, supernatants were collected, and the absence of a significant quantity of bacteria in the supernatants was checked in a microplate reader by absorbance at 600 nm (OD < 0.05). Fluorescence levels were then quantified with excitation at 395 nm and emission at 509 nm.

[3] = system: Acinetobacter baumannii clinical isolates; assay: Time-kill studies; type: cell-based
Experimental: Time-kill experiments were performed by JMI Laboratories (North Liberty, IA, USA) as described in chapter 5.14 of the Clinical Microbiology Procedures Handbook[32] and the CLSI M26-A[33] document. Two Acinetobacter baumannii clinical isolates (JMI colistin-sensitive strain #1088100 and colistin-resistant strain #1001007) were used for this study. MIC values that were determined in Difco Muller Hinton Broth (BD) for OMN6 and colistin as described above, were used as the baseline values during time-kill testing. In the time-kill experiments, OMN6 and colistin were tested in Difco Muller Hinton Broth. The time-kill cultures were sampled at 0, 2, 4, 8, and 24 h after compound addition. The number of CFU/mL in each culture was measured by plating 100 μL of serial dilutions onto blood agar plates. Colonies were counted after 48 h of growth at 35 °C. Time-kill curves were generated by plotting CFU/mL as log10 values over time. The limit of detection was 10 CFU/mL. Bactericidal activity was defined as a ≥ 99.9% reduction (i.e., a ≥ 3 log10 decrease) in the number of input bacterial cells at any arbitrary timepoint.

[4] = system: HEK293T cells; type: cell-based
Experimental: HEK-293T17 cells (ATCC CRL-1573) were purchased from ATCC and cultured to 80% confluency according to the ATCC culture method, using high-glucose and L-Glutamine Dulbecco's Modified Eagle Medium (DMEM) medium (ATCC catalog number 30-2002) supplemented with 10% fetal bovine serum and 1% Penicillin–Streptomycin solution (all from Biological Industries). For the experiment purposes, 30,000 cells were transferred to a 96-well plate (experiment plate) in a final volume of 100 µL of medium. The experiment plate was incubated at 5% CO2 and 37 °C for approximately 18 h. After 18 h, medium was discarded, and cells were co-incubated with OMN6, Melittin (Sigma-Aldrich) or dimethyl sulfoxide (DMSO; MP Biomedical LLC, Solon, OH, USA) that were prepared in new medium at desired concentrations. The experiment plate was incubated at 5% CO2 and 37 °C for 24 h. Then, glutaraldehyde at a final concentration of 0.5% was added in all wells for 10 min for cell fixation. After washing the plate 3 times with DDW, the experiment plate was dried overnight. Then, cells were washed with 0.1 M Borate buffer (pH = 8.5) for 1 min. 100 µL Methylene Blue diluted in the same Borate buffer was added to all wells for 1 h. Wells were washed with DDW and plate was dried overnight. Color extraction was executed by adding 0.1 M HCl. After an incubation at 37 °C for 1 h, cell survival was determined via absorbance at 620 nm using a microplate reader.

Structure (SMILES): CC[C@H](C)[C@@H]1NC(=O)CNC(=O)[C@H](CC(=O)O)NC(=O)[C@H](CCCNC(=N)N)NC(=O)[C@H]([C@@H](C)CC)NC(=O)[C@H](CC(N)=O)NC(=O)[C@H](CCC(N)=O)NC(=O)CNC(=O)[C@H](C(C)C)NC(=O)[C@H](CCCCN)NC(=O)[C@H](CCC(=O)O)NC(=O)[C@H]([C@@H](C)CC)NC(=O)[C@H](CCCCN)NC(=O)[C@H](CCCCN)NC(=O)[C@H](Cc2ccccc2)NC(=O)[C@H](CC(C)C)NC(=O)[C@H](CCCCN)NC(=O)[C@H](Cc2c[nH]c3ccccc23)NC(=O)[C@H](CCCCN)NC(=O)[C@@H](NC(=O)[C@@H](N)CCSC)CSSC[C@@H](C(N)=O)NC(=O)[C@H](CCCCN)NC(=O)[C@H](C)NC(=O)[C@H]([C@@H](C)CC)NC(=O)[C@H](CCC(N)=O)NC(=O)[C@H]([C@@H](C)O)NC(=O)[C@H](C)NC(=O)[C@H](CCC(N)=O)NC(=O)CNC(=O)[C@H](C(C)C)NC(=O)[C@H](C(C)C)NC(=O)[C@H](C)NC(=O)[C@H](C(C)C)NC(=O)[C@H](C)NC(=O)[C@@H]2CCCN2C(=O)CNC(=O)[C@H](C)NC(=O)[C@H](CCCCN)NC(=O)[C@H]([C@@H](C)CC)NC1=O [OMN6] (H-MCKWKLFKKIEKVGQNIRDGIIKAGPAVAVVGQATQIAKC-NH2; disulfide 2-40; N-terminus assumed)
- Stability after exposure to Proteinase-K [1]: remained intact
- Reduction in fluorescence arbitrary units (FU) of a bacterium, T = 0 h to T = 1 h (GFP leakage) ([2]; 16 µg/mL, 60 min, confocal microscope 488 nm, single bacterium): 12,000 FU
- CFU on agar plates after treatment (bacterial death) ([2]; 2 × 10^6 CFU, 16 µg/mL, 60 min, then LB agar 37 °C 24 h, data not shown): No CFU
- Level of fluorescence (FU) in supernatants vs DDW control ([2]; E. coli GFPuv 10^5 CFU, 50 µM, 30 min, centrifuged 5000 rpm, excitation 395 nm, emission 509 nm, p = 0.01): distinct increase
- Bactericidal pattern on colistin-resistant strain ([3]; colistin-resistant A. baumannii JMI #1001007, similar timeframe and concentrations as on the colistin-sensitive strain): retained its bactericidal pattern
- Concentrations with bactericidal effect after 2 h of incubation ([3]; colistin-sensitive A. baumannii JMI #1088100, Difco Muller Hinton Broth, bactericidal = ≥ 3 log10 decrease): > 8 µg/mL
- Re-growth during the 24 h timeframe ([3]; colistin-sensitive A. baumannii JMI #1088100, Difco Muller Hinton Broth, sampled 0, 2, 4, 8, 24 h): No re-growth
- Survival rate of HEK293T cells ([4]; 6.25–200 µM (27–868 µg/mL), 24 h, Methylene Blue, absorbance 620 nm, all concentrations): not affected
- Therapeutic window (no toxicity to mammalian cells vs MIC value against Gram-negative bacterial species) ([4]; relative to MIC against Gram-negative species): larger than tenfold
